According to ChEMBL document CHEMBL4507269, “Data for DCP probe BAY-386” (2021):

Key:
[1] = molecular target: T1, Alpha-2A adrenergic receptor (Homo sapiens) (UniProt P08913); experiment: alpha2A (h) Eurofins-Cerep Cellular and Nuclear Receptor Functional Assays; conditions: Compound concentration 10.0 uM
T1 sequence (whole entry): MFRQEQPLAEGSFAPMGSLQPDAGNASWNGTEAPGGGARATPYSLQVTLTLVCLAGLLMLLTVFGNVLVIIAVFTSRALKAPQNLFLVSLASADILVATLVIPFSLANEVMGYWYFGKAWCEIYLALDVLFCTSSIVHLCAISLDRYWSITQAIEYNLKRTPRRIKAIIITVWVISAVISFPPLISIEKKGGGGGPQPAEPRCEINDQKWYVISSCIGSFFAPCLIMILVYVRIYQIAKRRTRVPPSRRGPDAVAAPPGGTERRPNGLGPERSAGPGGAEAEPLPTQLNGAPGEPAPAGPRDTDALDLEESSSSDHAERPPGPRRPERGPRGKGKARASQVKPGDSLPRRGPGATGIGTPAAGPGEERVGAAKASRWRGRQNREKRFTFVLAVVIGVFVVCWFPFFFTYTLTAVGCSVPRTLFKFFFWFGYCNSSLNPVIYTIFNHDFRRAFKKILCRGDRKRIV

[2] = molecular target: D(2) dopamine receptor (Homo sapiens) (UniProt P14416); experiment: D2s (h) Eurofins-Cerep Cellular and Nuclear Receptor Functional Assays; conditions: Compound concentration 10.0 uM
[3] = molecular target: Histamine H3 receptor (Homo sapiens) (UniProt Q9Y5N1); experiment: H3 (h) Eurofins-Cerep Cellular and Nuclear Receptor Functional Assays; conditions: Compound concentration 10.0 uM
[4] = molecular target: P2Y purinoceptor 2 (Homo sapiens) (UniProt P41231); experiment: P2Y2 (h) Eurofins-Cerep Cellular and Nuclear Receptor Functional Assays; conditions: Compound concentration 10.0 uM
[5] = system: Tyrosine-protein kinase ABL1 (Homo sapiens), P00519 [F317L]; conditions: Compound concentration 1000.0 nM
[6] = molecular target: Protein-tyrosine kinase 6 (Homo sapiens) (UniProt Q13882); conditions: Compound concentration 1000.0 nM
[7] = molecular target: Cyclin-dependent kinase 3 (Homo sapiens) (UniProt Q00526); conditions: Compound concentration 1000.0 nM
[8] = molecular target: Cyclin-dependent kinase 9 (Homo sapiens) (UniProt P50750); conditions: Compound concentration 1000.0 nM
[9] = molecular target: Cyclin-dependent kinase-like 3 (Homo sapiens) (UniProt Q8IVW4); conditions: Compound concentration 1000.0 nM
[10] = molecular target: Epidermal growth factor receptor (Homo sapiens) (UniProt P00533); conditions: Compound concentration 1000.0 nM
[11] = system: Epidermal growth factor receptor (Homo sapiens), P00533 [G719C]; conditions: Compound concentration 1000.0 nM
[12] = system: Epidermal growth factor receptor (Homo sapiens), P00533 [L858R,T790M]; conditions: Compound concentration 1000.0 nM
[13] = system: Epidermal growth factor receptor (Homo sapiens), P00533 [T790M]; conditions: Compound concentration 1000.0 nM
[14] = molecular target: Receptor tyrosine-protein kinase erbB-2 (Homo sapiens) (UniProt P04626); conditions: Compound concentration 1000.0 nM
[15] = molecular target: Tyrosine-protein kinase Fgr (Homo sapiens) (UniProt P09769); conditions: Compound concentration 1000.0 nM
[16] = molecular target: Serine/threonine-protein kinase ICK (Homo sapiens) (UniProt Q9UPZ9); conditions: Compound concentration 1000.0 nM
[17] = system: Mast/stem cell growth factor receptor Kit (Homo sapiens), P10721 [D816H]; conditions: Compound concentration 1000.0 nM
[18] = system: Mast/stem cell growth factor receptor Kit (Homo sapiens), P10721 [D816V]; conditions: Compound concentration 1000.0 nM
[19] = system: Mast/stem cell growth factor receptor Kit (Homo sapiens), P10721 [V559D,T670I]; conditions: Compound concentration 1000.0 nM
[20] = molecular target: Mitogen-activated protein kinase kinase kinase kinase 2 (Homo sapiens) (UniProt Q12851); conditions: Compound concentration 1000.0 nM
[21] = molecular target: MAP kinase-activated protein kinase 5 (Homo sapiens) (UniProt Q8IW41); conditions: Compound concentration 1000.0 nM
[22] = molecular target: Serine/threonine-protein kinase Nek2 (Homo sapiens) (UniProt P51955); conditions: Compound concentration 1000.0 nM
[23] = molecular target: Mitogen-activated protein kinase 11 (Homo sapiens) (UniProt Q15759); conditions: Compound concentration 1000.0 nM
[24] = molecular target: Platelet-derived growth factor receptor alpha (Homo sapiens) (UniProt P16234); conditions: Compound concentration 1000.0 nM
[25] = molecular target: Cyclin-dependent kinase 2 homolog (Plasmodium falciparum (isolate 3D7)) (UniProt P61075); conditions: Compound concentration 1000.0 nM
[26] = system: Phosphatidylinositol 4,5-bisphosphate 3-kinase catalytic subunit alpha isoform (Homo sapiens), P42336 [H1047Y]; conditions: Compound concentration 1000.0 nM
[27] = molecular target: Serine/threonine-protein kinase PLK1 (Homo sapiens) (UniProt P53350); conditions: Compound concentration 1000.0 nM
[28] = molecular target: Serine/threonine-protein kinase SIK3 (Homo sapiens) (UniProt Q9Y2K2); conditions: Compound concentration 1000.0 nM
[29] = system: Proto-oncogene tyrosine-protein kinase receptor Ret (Homo sapiens), P07949 [V804M]; conditions: Compound concentration 1000.0 nM
[30] = molecular target: Serine/threonine-protein kinase RIO2 (Homo sapiens) (UniProt Q9BVS4); conditions: Compound concentration 1000.0 nM
[31] = molecular target: Ribosomal protein S6 kinase alpha-4 (Homo sapiens) (UniProt O75676); conditions: Compound concentration 1000.0 nM
[32] = molecular target: SRSF protein kinase 2 (Homo sapiens) (UniProt P78362); conditions: Compound concentration 1000.0 nM
[33] = molecular target: Activated CDC42 kinase 1 (Homo sapiens) (UniProt Q07912); conditions: Compound concentration 1000.0 nM
[34] = molecular target: Testis-specific serine/threonine-protein kinase 3 (Homo sapiens) (UniProt Q96PN8); conditions: Compound concentration 1000.0 nM
[35] = molecular target: Serine/threonine-protein kinase 32A (Homo sapiens) (UniProt Q8WU08); conditions: Compound concentration 1000.0 nM
[36] = molecular target: 5-hydroxytryptamine receptor 1D (Homo sapiens) (UniProt P28221); conditions: Compound concentration 10.0 uM
[37] = molecular target: D(1B) dopamine receptor (Homo sapiens) (UniProt P21918); conditions: Compound concentration 10.0 uM
[38] = molecular target: Muscarinic acetylcholine receptor M5 (Homo sapiens) (UniProt P08912); conditions: Compound concentration 10.0 uM

Chain of P2Y purinoceptor 2 (Homo sapiens) (P41231 whole entry): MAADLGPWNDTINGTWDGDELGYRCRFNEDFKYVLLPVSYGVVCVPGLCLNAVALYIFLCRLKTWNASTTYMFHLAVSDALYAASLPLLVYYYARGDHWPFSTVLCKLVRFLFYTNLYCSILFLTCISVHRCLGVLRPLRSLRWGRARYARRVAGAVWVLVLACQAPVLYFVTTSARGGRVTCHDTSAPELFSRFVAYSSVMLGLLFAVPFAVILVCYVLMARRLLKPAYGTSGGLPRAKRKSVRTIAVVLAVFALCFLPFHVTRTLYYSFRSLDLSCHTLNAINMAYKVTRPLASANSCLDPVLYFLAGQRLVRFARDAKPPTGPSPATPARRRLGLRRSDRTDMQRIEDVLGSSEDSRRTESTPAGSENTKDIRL
Chain of D(2) dopamine receptor (Homo sapiens) (P14416 whole entry): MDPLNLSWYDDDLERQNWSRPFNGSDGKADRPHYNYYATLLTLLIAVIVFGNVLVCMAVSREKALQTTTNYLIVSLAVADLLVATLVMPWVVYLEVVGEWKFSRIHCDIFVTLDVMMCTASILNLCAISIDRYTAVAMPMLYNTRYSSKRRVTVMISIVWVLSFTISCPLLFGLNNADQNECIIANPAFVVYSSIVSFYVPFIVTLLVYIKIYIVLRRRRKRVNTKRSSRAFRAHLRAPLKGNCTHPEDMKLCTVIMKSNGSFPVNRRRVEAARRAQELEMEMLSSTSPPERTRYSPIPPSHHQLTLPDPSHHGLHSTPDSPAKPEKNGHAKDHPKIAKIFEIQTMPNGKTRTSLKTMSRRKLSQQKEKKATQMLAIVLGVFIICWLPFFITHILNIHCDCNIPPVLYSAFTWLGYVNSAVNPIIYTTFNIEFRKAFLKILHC
Chain of Histamine H3 receptor (Homo sapiens) (Q9Y5N1 whole entry): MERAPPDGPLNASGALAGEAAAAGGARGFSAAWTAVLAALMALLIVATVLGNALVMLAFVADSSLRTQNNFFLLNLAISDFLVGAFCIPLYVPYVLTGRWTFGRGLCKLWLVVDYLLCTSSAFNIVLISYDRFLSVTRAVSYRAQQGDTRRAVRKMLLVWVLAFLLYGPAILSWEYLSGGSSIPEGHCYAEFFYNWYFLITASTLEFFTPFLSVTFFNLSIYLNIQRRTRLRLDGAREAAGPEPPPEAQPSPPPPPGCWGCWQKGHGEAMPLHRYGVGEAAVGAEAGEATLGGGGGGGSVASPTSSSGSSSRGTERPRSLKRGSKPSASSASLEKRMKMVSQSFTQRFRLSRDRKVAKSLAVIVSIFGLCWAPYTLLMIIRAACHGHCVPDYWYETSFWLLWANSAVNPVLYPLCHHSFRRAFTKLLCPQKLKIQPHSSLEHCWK
Chain of Cyclin-dependent kinase 9 (Homo sapiens) (P50750 whole entry): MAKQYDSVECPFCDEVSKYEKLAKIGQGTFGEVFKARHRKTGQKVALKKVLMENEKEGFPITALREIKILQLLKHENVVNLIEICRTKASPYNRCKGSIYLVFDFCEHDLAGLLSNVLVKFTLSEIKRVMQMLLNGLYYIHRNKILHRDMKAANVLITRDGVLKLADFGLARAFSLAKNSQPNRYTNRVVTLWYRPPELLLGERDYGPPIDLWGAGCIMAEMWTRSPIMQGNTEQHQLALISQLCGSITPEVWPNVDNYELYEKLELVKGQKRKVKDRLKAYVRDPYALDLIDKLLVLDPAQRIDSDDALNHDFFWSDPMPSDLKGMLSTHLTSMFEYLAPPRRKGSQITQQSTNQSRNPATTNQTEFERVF
Chain of Activated CDC42 kinase 1 (Homo sapiens) (Q07912 whole entry, looked up): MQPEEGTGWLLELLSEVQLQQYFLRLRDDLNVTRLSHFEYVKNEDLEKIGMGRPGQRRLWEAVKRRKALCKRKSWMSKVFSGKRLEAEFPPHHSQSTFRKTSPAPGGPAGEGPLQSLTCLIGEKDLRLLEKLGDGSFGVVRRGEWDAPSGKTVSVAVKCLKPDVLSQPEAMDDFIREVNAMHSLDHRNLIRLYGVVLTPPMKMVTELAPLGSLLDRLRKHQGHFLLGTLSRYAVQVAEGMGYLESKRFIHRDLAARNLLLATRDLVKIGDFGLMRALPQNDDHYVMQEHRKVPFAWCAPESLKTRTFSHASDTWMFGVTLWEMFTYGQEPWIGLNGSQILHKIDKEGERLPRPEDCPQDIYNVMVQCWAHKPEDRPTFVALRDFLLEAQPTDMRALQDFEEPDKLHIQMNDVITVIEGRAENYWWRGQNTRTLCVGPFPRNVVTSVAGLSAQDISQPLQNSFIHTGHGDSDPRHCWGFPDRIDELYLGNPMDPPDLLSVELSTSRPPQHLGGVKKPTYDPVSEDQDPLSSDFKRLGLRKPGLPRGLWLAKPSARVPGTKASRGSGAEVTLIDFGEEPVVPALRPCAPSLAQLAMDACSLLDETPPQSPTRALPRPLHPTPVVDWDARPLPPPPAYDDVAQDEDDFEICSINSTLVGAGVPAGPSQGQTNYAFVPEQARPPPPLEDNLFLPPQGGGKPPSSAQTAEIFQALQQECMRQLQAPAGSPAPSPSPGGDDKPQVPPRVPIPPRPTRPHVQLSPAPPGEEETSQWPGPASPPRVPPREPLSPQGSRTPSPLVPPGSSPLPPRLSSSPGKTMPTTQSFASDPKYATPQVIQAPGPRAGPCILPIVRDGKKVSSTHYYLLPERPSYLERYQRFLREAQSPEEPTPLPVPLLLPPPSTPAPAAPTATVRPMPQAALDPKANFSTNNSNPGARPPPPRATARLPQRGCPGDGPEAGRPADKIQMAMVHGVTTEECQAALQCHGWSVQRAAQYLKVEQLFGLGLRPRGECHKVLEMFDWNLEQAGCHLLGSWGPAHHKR
Chain of Protein-tyrosine kinase 6 (Homo sapiens) (Q13882 whole entry, looked up): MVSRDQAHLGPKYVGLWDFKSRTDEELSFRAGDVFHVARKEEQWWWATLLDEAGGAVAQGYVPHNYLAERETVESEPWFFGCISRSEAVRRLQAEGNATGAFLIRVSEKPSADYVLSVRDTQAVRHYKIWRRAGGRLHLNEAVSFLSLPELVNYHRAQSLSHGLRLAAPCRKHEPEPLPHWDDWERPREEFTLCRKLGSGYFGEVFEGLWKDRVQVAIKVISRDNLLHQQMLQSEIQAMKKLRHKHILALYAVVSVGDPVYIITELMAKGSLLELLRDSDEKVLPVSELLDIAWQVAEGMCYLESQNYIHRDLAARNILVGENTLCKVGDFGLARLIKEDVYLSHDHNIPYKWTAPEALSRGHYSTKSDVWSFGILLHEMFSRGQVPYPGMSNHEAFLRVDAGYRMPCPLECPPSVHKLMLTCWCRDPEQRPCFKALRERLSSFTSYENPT
Chain of Phosphatidylinositol 4,5-bisphosphate 3-kinase catalytic subunit alpha isoform (Homo sapiens), P42336 [H1047Y] (P42336 whole entry H1047Y, canonical isoform): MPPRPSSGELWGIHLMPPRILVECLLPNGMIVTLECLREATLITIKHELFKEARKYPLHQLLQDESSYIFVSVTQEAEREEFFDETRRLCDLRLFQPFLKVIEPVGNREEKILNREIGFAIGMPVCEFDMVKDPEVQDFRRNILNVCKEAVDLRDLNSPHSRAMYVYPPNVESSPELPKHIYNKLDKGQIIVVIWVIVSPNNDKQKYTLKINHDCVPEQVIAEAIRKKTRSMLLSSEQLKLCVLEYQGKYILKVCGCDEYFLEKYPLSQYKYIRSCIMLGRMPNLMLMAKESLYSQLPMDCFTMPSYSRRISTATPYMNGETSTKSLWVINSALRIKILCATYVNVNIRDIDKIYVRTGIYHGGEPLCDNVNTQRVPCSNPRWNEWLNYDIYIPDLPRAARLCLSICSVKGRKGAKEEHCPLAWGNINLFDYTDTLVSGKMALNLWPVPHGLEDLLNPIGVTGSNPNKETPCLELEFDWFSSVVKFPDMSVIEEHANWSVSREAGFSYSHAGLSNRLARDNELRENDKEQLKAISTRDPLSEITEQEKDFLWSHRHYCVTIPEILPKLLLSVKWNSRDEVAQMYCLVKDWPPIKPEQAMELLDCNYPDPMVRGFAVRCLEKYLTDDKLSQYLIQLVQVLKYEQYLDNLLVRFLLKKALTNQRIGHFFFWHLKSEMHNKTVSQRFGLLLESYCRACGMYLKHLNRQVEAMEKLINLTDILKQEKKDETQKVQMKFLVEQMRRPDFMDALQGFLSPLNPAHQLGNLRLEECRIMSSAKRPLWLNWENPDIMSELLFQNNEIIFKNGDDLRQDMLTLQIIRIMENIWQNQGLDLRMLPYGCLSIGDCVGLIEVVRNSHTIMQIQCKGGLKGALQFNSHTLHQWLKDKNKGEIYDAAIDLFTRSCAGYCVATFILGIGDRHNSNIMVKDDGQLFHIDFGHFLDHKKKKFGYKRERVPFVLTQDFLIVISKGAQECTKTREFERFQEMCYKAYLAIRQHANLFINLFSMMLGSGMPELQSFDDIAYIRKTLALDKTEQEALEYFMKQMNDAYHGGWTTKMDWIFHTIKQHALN
Chain of D(1B) dopamine receptor (Homo sapiens) (P21918 whole entry): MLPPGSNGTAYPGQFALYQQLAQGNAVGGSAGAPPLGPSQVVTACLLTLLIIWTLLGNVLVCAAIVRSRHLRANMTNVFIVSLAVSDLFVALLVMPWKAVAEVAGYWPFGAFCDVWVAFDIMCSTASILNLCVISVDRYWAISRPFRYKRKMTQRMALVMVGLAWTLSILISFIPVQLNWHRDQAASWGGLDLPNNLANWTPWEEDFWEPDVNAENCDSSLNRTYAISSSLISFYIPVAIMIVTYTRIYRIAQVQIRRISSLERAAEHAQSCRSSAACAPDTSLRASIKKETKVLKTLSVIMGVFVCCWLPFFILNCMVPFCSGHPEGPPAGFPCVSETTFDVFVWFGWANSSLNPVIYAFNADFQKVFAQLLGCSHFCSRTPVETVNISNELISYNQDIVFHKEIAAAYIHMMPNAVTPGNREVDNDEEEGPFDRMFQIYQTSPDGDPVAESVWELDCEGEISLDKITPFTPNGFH
Chain of Cyclin-dependent kinase 2 homolog (Plasmodium falciparum (isolate 3D7)) (P61075 whole entry, canonical isoform): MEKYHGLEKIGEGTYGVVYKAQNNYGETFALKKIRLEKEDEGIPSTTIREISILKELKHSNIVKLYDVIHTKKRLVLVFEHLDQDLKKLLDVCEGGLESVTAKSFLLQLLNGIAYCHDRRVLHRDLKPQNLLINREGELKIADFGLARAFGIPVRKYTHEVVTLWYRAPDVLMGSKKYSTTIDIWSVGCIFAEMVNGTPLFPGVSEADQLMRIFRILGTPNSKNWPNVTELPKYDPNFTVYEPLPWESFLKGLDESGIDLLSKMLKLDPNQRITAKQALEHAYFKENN

O=C(N1CCS(=O)(=O)CC1)N1C[C@H](c2ccc(OC(F)(F)F)cc2)C[C@H](c2nc(C3CC3)no2)C1 [BAY-386]
0.7%: % of Control Agonist Response (Mean n=2) [4]
-1.7%: % Inhibition of Control Agonist Response (Mean n=2) [1]
-3.7%: % Inhibition of Control Agonist Response (Mean n=2) [3]
4%: % of Control Agonist Response (Mean n=2) [2]
6.3%: % of Control Agonist Response (Mean n=2) [1]
6.6%: % Inhibition of Control Agonist Response (Mean n=2) [2]
inactive: residual activity [5] 92% | residual activity [6] 100% | residual activity [7] 96% | residual activity [8] 100% | residual activity [9] 93% | residual activity [10] 100% | residual activity [11] 97% | residual activity [12] 59% | residual activity [13] 100% | residual activity [14] 100% | residual activity [15] 100% | residual activity [16] 100% | residual activity [17] 71% | residual activity [18] 100% | residual activity [19] 100% | residual activity [20] 94% | residual activity [21] 94% | residual activity [22] 100% | residual activity [23] 100% | residual activity [24] 100% | residual activity [25] 100% | residual activity [26] 100% | residual activity [27] 91% | residual activity [28] 77% | residual activity [29] 100% | residual activity [30] 100% | residual activity [31] 100% | residual activity [32] 100% | residual activity [33] 97% | residual activity [34] 100% | residual activity [35] 89% | inhibition [36] 5.17% | inhibition [37] 9.95% | inhibition [38] 4.1%
6.2%: % of Control Agonist Response (Mean n=2) [3]
41.9%: % Inhibition of Control Agonist Response (Mean n=2) [4]

Cc1noc([C@H]2C[C@@H](c3ccc(C(F)(F)F)cc3)CN(C(=O)N3CCS(=O)(=O)C3)C2)n1 [BAY-448]
3.1%: % of Control Agonist Response (Mean n=2) [2]
-13.5%: % Inhibition of Control Agonist Response (Mean n=2) [1]
29.1%: % Inhibition of Control Agonist Response (Mean n=2) [4]
inactive: residual activity [5] 85% | residual activity [6] 100% | residual activity [7] 100% | residual activity [8] 100% | residual activity [9] 81% | residual activity [10] 100% | residual activity [11] 100% | residual activity [12] 96% | residual activity [13] 77% | residual activity [14] 100% | residual activity [15] 100% | residual activity [16] 62% | residual activity [17] 100% | residual activity [18] 100% | residual activity [19] 100% | residual activity [20] 100% | residual activity [21] 100% | residual activity [22] 100% | residual activity [23] 100% | residual activity [24] 100% | residual activity [25] 80% | residual activity [26] 95% | residual activity [27] 81% | residual activity [28] 78% | residual activity [29] 100% | residual activity [30] 100% | residual activity [31] 100% | residual activity [32] 100% | residual activity [33] 100% | residual activity [34] 100% | residual activity [35] 100% | inhibition [36] -9.27% | inhibition [37] 22.6% | inhibition [38] -1.71%
8.6%: % Inhibition of Control Agonist Response (Mean n=2) [2]
13.9%: % of Control Agonist Response (Mean n=2) [3]
2.5%: % of Control Agonist Response (Mean n=2) [1]
-4.2%: % Inhibition of Control Agonist Response (Mean n=2) [3] | % of Control Agonist Response (Mean n=2) [4]
